Measurements: PubChem BioAssay (NCI)
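Cells were grown in 96-well plates and exposed to each compound for 48 hours at five concentrations; endpoints were interpolated linearly between bracketing concentrations, or set to the highest concentration if not reached. GI50 = concentration required for 50% inhibition of growth. The concentration for full growth arrest is given as TGI.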

Columns and labels:
Assay in all cases: inhibition of tumour cell growth, NCI panel, 48 h
HOP-62 NSCLC = system: HOP-62 NSCLC
SK-MEL-28 melanoma = system: SK-MEL-28 melanoma
IGROV1 ovarian = system: IGROV1 ovarian
BT-549 breast = system: BT-549 breast
UACC-62 melanoma = system: UACC-62 melanoma
HL-60(TB) leukemia = system: HL-60(TB) leukemia
SN12C renal = system: SN12C renal
SF-268 CNS = system: SF-268 CNS
DU-145 prostate = system: DU-145 prostate
TK-10 renal = system: TK-10 renal
OVCAR-4 ovarian = system: OVCAR-4 ovarian
HS 578T breast = system: HS 578T breast
A549 NSCLC = system: A549 NSCLC
NCI-H522 lung = system: NCI-H522 lung
SF-295 CNS = system: SF-295 CNS
MCF7 breast = system: MCF7 breast
SK-MEL-2 melanoma = system: SK-MEL-2 melanoma
SF-539 CNS = system: SF-539 CNS
NCI-H460 lung = system: NCI-H460 lung
HOP-92 NSCLC = system: HOP-92 NSCLC
PC-3 prostate = system: PC-3 prostate
OVCAR-5 ovarian = system: OVCAR-5 ovarian
UACC-257 melanoma = system: UACC-257 melanoma
U251 CNS = system: U251 CNS
RPMI-8226 leukemia = system: RPMI-8226 leukemia
NCI/ADR-RES ovarian = system: NCI/ADR-RES ovarian
SK-MEL-5 melanoma = system: SK-MEL-5 melanoma
SR leukemia = system: SR leukemia
RXF 393 renal = system: RXF 393 renal
HCC-2998 colon = system: HCC-2998 colon
LOX IMVI melanoma = system: LOX IMVI melanoma
NCI-H23 lung = system: NCI-H23 lung
EKVX NSCLC = system: EKVX NSCLC
MOLT-4 leukemia = system: MOLT-4 leukemia
A498 renal = system: A498 renal
T-47D breast = system: T-47D breast
COLO 205 colon = system: COLO 205 colon
MDA-MB-435 = system: MDA-MB-435
MDA-MB-468 breast = system: MDA-MB-468 breast
ACHN renal = system: ACHN renal
NCI-H226 lung = system: NCI-H226 lung
CAKI-1 renal = system: CAKI-1 renal
786-0 renal = system: 786-0 renal
M14 melanoma = system: M14 melanoma
SNB-75 CNS = system: SNB-75 CNS
HCT-15 colon = system: HCT-15 colon
UO-31 renal = system: UO-31 renal
MDA-MB-231 breast = system: MDA-MB-231 breast
SW-620 colon = system: SW-620 colon
KM12 colon = system: KM12 colon
OVCAR-8 ovarian = system: OVCAR-8 ovarian
SNB-19 CNS = system: SNB-19 CNS
K-562 leukemia = system: K-562 leukemia
SK-OV-3 ovarian = system: SK-OV-3 ovarian
MALME-3M melanoma = system: MALME-3M melanoma
OVCAR-3 ovarian = system: OVCAR-3 ovarian
HT29 colon = system: HT29 colon
CCRF-CEM leukemia = system: CCRF-CEM leukemia
HCT-116 colon = system: HCT-116 colon

## Clc1cccc(N/N=C/c2c[nH]c3ccccc23)n1
HOP-62 NSCLC
  GI50: 10000 nM
  TGI: 22300 nM
SK-MEL-28 melanoma
  GI50: 14500 nM
  TGI: 27600 nM
IGROV1 ovarian
  GI50: 1370 nM
  TGI: 6920 nM
BT-549 breast
  GI50: 245 nM
  TGI: 11000 nM
UACC-62 melanoma
  GI50: 10300 nM
  TGI: 22000 nM
HL-60(TB) leukemia
  GI50: 1280 nM
  TGI: 13900 nM
SN12C renal
  GI50: 2280 nM
  TGI: 11700 nM
SF-268 CNS
  GI50: 2990 nM
  TGI: 25900 nM
DU-145 prostate
  GI50: 13000 nM
  TGI: 26000 nM
TK-10 renal
  GI50: 19500 nM
  TGI: 42300 nM
OVCAR-4 ovarian
  GI50: 10500 nM
  TGI: 29000 nM
HS 578T breast
  GI50: 4170 nM
  TGI: 27800 nM
A549 NSCLC
  GI50: 13200 nM
  TGI: 38200 nM
NCI-H522 lung
  GI50: 1030 nM
  TGI: 12400 nM
SF-295 CNS
  GI50: 11400 nM
  TGI: 23500 nM
MCF7 breast
  GI50: 2670 nM
  TGI: 16400 nM
SK-MEL-2 melanoma
  GI50: 12900 nM
  TGI: 25900 nM
SF-539 CNS
  GI50: 1470 nM
  TGI: 11900 nM
NCI-H460 lung
  GI50: 11500 nM
  TGI: 28800 nM
HOP-92 NSCLC
  GI50: 5320 nM
  TGI: 20700 nM
PC-3 prostate
  GI50: 2980 nM
  TGI: 26600 nM
OVCAR-5 ovarian
  GI50: 11000 nM
  TGI: 23700 nM
UACC-257 melanoma
  GI50: 11600 nM
  TGI: 24000 nM
U251 CNS
  GI50: 10700 nM
  TGI: 25800 nM
RPMI-8226 leukemia
  GI50: 830 nM
  TGI: 14500 nM
NCI/ADR-RES ovarian
  GI50: 2980 nM
  TGI: 16500 nM
SK-MEL-5 melanoma
  GI50: 8610 nM
  TGI: 21000 nM
SR leukemia
  GI50: 2930 nM
  TGI: 19300 nM
RXF 393 renal
  GI50: 2840 nM
  TGI: 18100 nM
HCC-2998 colon
  GI50: 12000 nM
  TGI: 24600 nM
LOX IMVI melanoma
  GI50: 3320 nM
  TGI: 17000 nM
NCI-H23 lung
  GI50: 12500 nM
  TGI: 26300 nM
EKVX NSCLC
  GI50: 1970 nM
  TGI: 16800 nM
MOLT-4 leukemia
  GI50: 1550 nM
  TGI: 21900 nM
A498 renal
  GI50: 18700 nM
  TGI: 34000 nM
T-47D breast
  GI50: 4040 nM
  TGI: 19000 nM
COLO 205 colon
  GI50: 13800 nM
  TGI: 28800 nM
MDA-MB-435
  GI50: 2460 nM
  TGI: 12000 nM
MDA-MB-468 breast
  GI50: 1890 nM
  TGI: 5010 nM
ACHN renal
  GI50: 10500 nM
  TGI: 33600 nM
NCI-H226 lung
  GI50: 1650 nM
  TGI: 17200 nM
CAKI-1 renal
  GI50: 2230 nM
  TGI: 19100 nM
786-0 renal
  GI50: 11100 nM
  TGI: 24200 nM
M14 melanoma
  GI50: 11900 nM
  TGI: 25400 nM
SNB-75 CNS
  GI50: 141 nM
  TGI: 5000 nM
HCT-15 colon
  GI50: 8100 nM
  TGI: 21500 nM
UO-31 renal
  GI50: 1210 nM
  TGI: 14100 nM
MDA-MB-231 breast
  GI50: 1370 nM
  TGI: 9570 nM
SW-620 colon
  GI50: 13300 nM
  TGI: 28000 nM
KM12 colon
  GI50: 9780 nM
  TGI: 26900 nM
OVCAR-8 ovarian
  GI50: 8120 nM
  TGI: 21000 nM
SNB-19 CNS
  GI50: 12700 nM
  TGI: 30800 nM
K-562 leukemia
  GI50: 1940 nM
  TGI: 41000 nM
SK-OV-3 ovarian
  GI50: 2390 nM
  TGI: 16800 nM
MALME-3M melanoma
  GI50: 7330 nM
  TGI: 20800 nM
OVCAR-3 ovarian
  GI50: 3850 nM
  TGI: 19300 nM
HT29 colon
  GI50: 15000 nM
  TGI: 31800 nM
CCRF-CEM leukemia
  GI50: 307 nM
  TGI: 19400 nM
HCT-116 colon
  GI50: 12100 nM
  TGI: 25200 nM

## C=CC[Se]C(=O)c1ccc(C(=O)[Se]CC=C)s1
HOP-62 NSCLC
  GI50: 152 nM
  TGI: 1450 nM
SK-MEL-28 melanoma
  GI50: 666 nM
  TGI: 1850 nM
IGROV1 ovarian
  GI50: 277 nM
  TGI: 727 nM
BT-549 breast
  GI50: 324 nM
  TGI: 1300 nM
UACC-62 melanoma
  GI50: 482 nM
  TGI: 1390 nM
HL-60(TB) leukemia
  GI50: 581 nM
  TGI: 2580 nM
SN12C renal
  GI50: 348 nM
  TGI: 1110 nM
SF-268 CNS
  GI50: 768 nM
  TGI: 4830 nM
DU-145 prostate
  GI50: 680 nM
  TGI: 6400 nM
TK-10 renal
  GI50: 1050 nM
  TGI: 7560 nM
OVCAR-4 ovarian
  GI50: 948 nM
  TGI: 2500 nM
HS 578T breast
  GI50: 294 nM
  TGI: 1890 nM
A549 NSCLC
  GI50: 313 nM
  TGI: > 27500 nM
NCI-H522 lung
  GI50: 524 nM
  TGI: 1040 nM
SF-295 CNS
  GI50: 55.2 nM
  TGI: 317 nM
MCF7 breast
  GI50: 565 nM
  TGI: 1840 nM
SK-MEL-2 melanoma
  GI50: 1260 nM
  TGI: 3170 nM
SF-539 CNS
  GI50: 307 nM
  TGI: 852 nM
NCI-H460 lung
  GI50: 289 nM
  TGI: 1610 nM
HOP-92 NSCLC
  GI50: 920 nM
  TGI: 7650 nM
PC-3 prostate
  GI50: 286 nM
  TGI: 1290 nM
OVCAR-5 ovarian
  GI50: 382 nM
  TGI: 1010 nM
UACC-257 melanoma
  GI50: 721 nM
  TGI: 2080 nM
U251 CNS
  GI50: 505 nM
  TGI: 1870 nM
RPMI-8226 leukemia
  GI50: 375 nM
  TGI: 2430 nM
NCI/ADR-RES ovarian
  GI50: 261 nM
  TGI: 661 nM
SK-MEL-5 melanoma
  GI50: 1490 nM
  TGI: 3350 nM
SR leukemia
  GI50: 603 nM
  TGI: 2210 nM
RXF 393 renal
  GI50: 696 nM
  TGI: 1640 nM
HCC-2998 colon
  GI50: 313 nM
  TGI: 1000 nM
LOX IMVI melanoma
  GI50: 721 nM
  TGI: 2000 nM
NCI-H23 lung
  GI50: 313 nM
  TGI: 1030 nM
EKVX NSCLC
  GI50: 623 nM
  TGI: 1630 nM
MOLT-4 leukemia
  GI50: 992 nM
  TGI: 5600 nM
A498 renal
  GI50: 2820 nM
  TGI: 66900 nM
T-47D breast
  GI50: 265 nM
  TGI: 962 nM
COLO 205 colon
  GI50: 1400 nM
  TGI: 4030 nM
MDA-MB-435
  GI50: 691 nM
  TGI: 2060 nM
MDA-MB-468 breast
  GI50: 657 nM
  TGI: 1620 nM
ACHN renal
  GI50: 942 nM
  TGI: 4370 nM
NCI-H226 lung
  GI50: 794 nM
  TGI: 2710 nM
CAKI-1 renal
  GI50: 810 nM
  TGI: 9760 nM
786-0 renal
  GI50: 314 nM
  TGI: 1160 nM
M14 melanoma
  GI50: 387 nM
  TGI: 1570 nM
SNB-75 CNS
  GI50: 215 nM
  TGI: 577 nM
HCT-15 colon
  GI50: 765 nM
  TGI: 2150 nM
UO-31 renal
  GI50: 515 nM
  TGI: 1090 nM
MDA-MB-231 breast
  GI50: 676 nM
  TGI: 6410 nM
SW-620 colon
  GI50: 800 nM
  TGI: 2140 nM
KM12 colon
  GI50: 284 nM
  TGI: 928 nM
OVCAR-8 ovarian
  GI50: 345 nM
  TGI: 1090 nM
SNB-19 CNS
  GI50: 289 nM
  TGI: 1260 nM
K-562 leukemia
  GI50: 2100 nM
  TGI: > 23000 nM
SK-OV-3 ovarian
  GI50: 224 nM
  TGI: 546 nM
MALME-3M melanoma
  GI50: 670 nM
  TGI: 2350 nM
OVCAR-3 ovarian
  GI50: 655 nM
  TGI: 1620 nM
HT29 colon
  GI50: 887 nM
  TGI: > 31500 nM
CCRF-CEM leukemia
  GI50: 428 nM
  TGI: > 21800 nM
HCT-116 colon
  GI50: 327 nM
  TGI: 1230 nM
